Structures are written as SMILES. ± gives the expanded uncertainty stated by the source.

For series [1] the following is noted: 298.15 K; 101.33 kPa; Liquid; Vibrating tube method.
Series [2] in a line: excess molar enthalpy (molar enthalpy of mixing); xn = mol fraction of the nth substance listed. As to conditions: 298.15 K, 101.3 kPa, Liquid, Flow calorimetry.

On to `CCC(C)CC` [3-methylpentane], for which, in series [1], the mass density is given as 659.94 ± 0.4 kg/m3.
Take `CCC(C)CC` [3-methylpentane] + CC(C)OC(C)C: the excess molar enthalpy in series [2] (x2 = 0.05) is 0.0101 ± 0.000263 kcal/mol; in series [2] (x2 = 0.1), 0.0188 ± 0.000335 kcal/mol; in series [2] (x2 = 0.1499), 0.0262 ± 0.000382 kcal/mol; in series [2] (x2 = 0.2) it was 0.0325 ± 0.00043 kcal/mol; in series [2] (x2 = 0.2503) it was 0.0372 ± 0.000478 kcal/mol; in series [2] (x2 = 0.2998), 0.041 ± 0.000502 kcal/mol. The excess molar enthalpy turned out to be 0.0439 ± 0.000526 kcal/mol in series [2] (x2 = 0.3501); 0.046 ± 0.00055 kcal/mol in series [2] (x2 = 0.3997); 0.0472 ± 0.00055 kcal/mol in series [2] (x2 = 0.45); 0.0472 ± 0.00055 kcal/mol in series [2] (x2 = 0.5003); 0.0463 ± 0.00055 kcal/mol in series [2] (x2 = 0.5502); 0.0448 ± 0.000526 kcal/mol in series [2] (x2 = 0.5998). For the same compound, the excess molar enthalpy in series [2] (x2 = 0.65) was 0.0422 ± 0.000526 kcal/mol; in series [2] (x2 = 0.7002), 0.0387 ± 0.000478 kcal/mol; in series [2] (x2 = 0.7501), 0.0343 ± 0.000454 kcal/mol; in series [2] (x2 = 0.8003), 0.029 ± 0.000406 kcal/mol; in series [2] (x2 = 0.85), 0.0224 ± 0.000359 kcal/mol; in series [2] (x2 = 0.9), 0.0158 ± 0.000311 kcal/mol. Besides, in series [2] (x2 = 0.95), the excess molar enthalpy was 0.00855 ± 0.000263 kcal/mol.
As for `CCCCCCCCCC` [decane], the mass density in series [1] was 726.3 ± 0.41 kg/m3.
For the compound `CC(C)OC(C)C` [diisopropyl ether], in series [1], the mass density was found to be 718.7 ± 0.41 kg/m3.
In the case of `CCCCCCCC` [octane], in series [1], the mass density came to 698.72 ± 0.4 kg/m3.

Source of the values: the NIST ThermoML archive (doi:10.1021/je030161t).
